Experimental data taken from US20190144375A1, “NOVEL CARBOCYCLIC COMPOUNDS AS ROR GAMMA MODULATORS” (Glenmark Pharmaceuticals S.A., priority 2015, published 2019).

Target: T1, GST-tagged ROR gamma ligand binding domain (LBD) (Homo sapiens, UniProt P51449)
T1 construct: purchased Invitrogen
T1 sequence (P51449 269-508 limits assumed): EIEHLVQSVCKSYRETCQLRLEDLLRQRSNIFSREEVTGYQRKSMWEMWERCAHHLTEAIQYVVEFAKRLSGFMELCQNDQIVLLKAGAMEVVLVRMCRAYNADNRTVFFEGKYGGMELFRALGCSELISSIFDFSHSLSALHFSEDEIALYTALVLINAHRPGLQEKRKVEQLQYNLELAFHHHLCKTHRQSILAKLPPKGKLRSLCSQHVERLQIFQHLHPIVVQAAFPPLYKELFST
Assay: TR-FRET assay for ROR gamma (LanthaScreen, Fluorescein-D22 co-activator peptide recruitment)
Assay type: biochemical
Details: for inhibition at 1 µM: 1 μM compound; for inhibition at 1 µM / inhibition at 10 µM: TR-FRET ratio 520/495; for inhibition at 10 µM: 10 μM compound
Source text: The compounds described herein were screened for ROR gamma modulator activity using the TR-FRET assay (LanthaScreen™ available from Invitrogen of Carlsbad, Calif.) as described in JBC 2011, 286, 26: 22707-10; and Drug Metabolism and Disposition 2009, 37, 10: 2069-78.
The assay is based on the principle that binding of the agonist to the ROR gamma causes a conformational change around helix 12 in the ligand binding domain, resulting in higher affinity for the co-activator peptide. ROR gamma being constitutively active, the Fluorescein-D22 co-activator peptide used in the assay is recruited in the absence of a ligand. Binding of the co-activator peptide, causes an increase in the TR-FRET signal while binding of an antagonist decreases the recruitment of the co-activator peptide, causing a decrease in the TR-FRET signal compared to control with no compound. The assay was performed using a two-step procedure, pre-incubation step with the compound followed by the detection step on addition of the anti-GST tagged terbium (Tb) and fluorescein tagged fluorophores as the acceptor.
Test compounds or reference compounds such as T0901317 (Calbiochem) were dissolved in dimethylsulfoxide (DMSO) to prepare 10.0 mM stock solutions and diluted to the desired concentration. The final concentration of DMSO in the reaction was 4% (v/v). The assay mixture was prepared by mixing 10 nM of the GST-tagged ROR gamma ligand binding domain (LBD) in the assay buffer containing 25 mM HEPES, 100 mM NaCl, 5 mM DTT and 0.01% BSA with or without the desired concentration of the compound. The reaction was incubated at 22° C. for 1 hour. The pre-incubation step was terminated by addition of the detection mixture containing 300 nM Fluorescein-D22 co-activator peptide and 10 nM lantha screen Tb-anti GST antibody into the reaction mixture. After shaking for 5 minutes the reaction was further incubated for 1 hour at room temperature and read […] on an Infinite F500 reader as per the kit instructions (Invitrogen). The inhibition of test compound was calculated based on the TR-FRET ratio of 520/495. The activity was calculated as a percent of control reaction. IC50 values were calculated from dose response curve by nonlinear regression analysis using GraphPad Prism software.
Percentage inhibition at concentrations of 1.0 μM and 10.0 μM are given in the table along with IC50 (nM) details for selected examples.

Compound | inhibition at 1 µM [%] | inhibition at 10 µM [%] | IC50 (dose response curve, class symbols) [µM]
CC(O)C(F)(F)c1ccc(CC(=O)Nc2ccc(C(=O)N(C)c3ccc(Cl)cc3Cl)cc2)cc1 (centres unmarked) [Example 25] | 82 | 90 | < 0.05
CN(C(=O)c1ccc(NC(=O)Cc2ccc(C(F)(F)C(N)=O)cc2)cc1)c1ccc(Cl)cc1 [Example 2, 4-(2-(4-(2-amino-1,1-difluoro-2-oxoethyl)phenyl)acetamido)-N-(4-chlorophenyl)-N-methylbenzamide] | 20.7 | 43.4 | –
